From US10285967B2, “Monoacylglycerols for use in conjunction with a lipase inhibitor and/or diets low in fat and/or calories” (NESTEC S.A., priority 2013, dated 2019)

How the values were obtained:
[1] = lipid maldigestion or malabsorption rat model (XENICAL-induced), EPA level in red blood cell lipids; format: in vivo; settings: FIG. 2; for level of EPA incorporated in red blood cells: rats, day 7, with XENICAL (ORLISTAT)
Experimental: The concept was tested in a lipid maldigestion or malabsorption rat model. The maldigestion or malabsorption condition was obtained using XENICAL® (ORLISTAT), a pancreatic and gastric lipases inhibitor (tetrahydrolipstatin; see FIG. 7). Rats were fed during 21 days with long-chain polyunsaturated fatty acid (LC-PUFA) supplements containing mainly eicosapentaenoic (EPA) acid. Fish oil was used as a source of triacylglycerols, and different EPA glycerides were evaluated. XENICAL® (ORLISTAT) was given at a level sufficient to decrease lipid absorption by 40%. A group receiving fish oil without XENICAL® (ORLISTAT) was used as a positive control. At different time intervals (D3, D7, D14 and D21), the fatty acid profiles of red blood cell and plasma lipids were determined. At the end of the experiment, the fatty acid profiles of different tissues were determined.
The main objective was to follow the level of EPA in red blood cell and plasma lipids. The main comparison evaluated was the difference in EPA level between the group receiving EPA-containing sn-1(3) MAG (FIG. 1) in combination with XENICAL® (ORLISTAT) and the […] (fish oil+XENICAL® (ORLISTAT)).
This comparison corroborates the validity of the model.

[2] = clinical study of EPA delivery under lipid maldigestion induced by XENICAL (ORLISTAT); format: in vivo, human
Experimental: This clinical study compared the efficacy of sn-1(3) MAG and fish oil (TAG) in delivering EPA in humans under lipid maldigestion conditions induced by XENICAL® (ORLISTAT). The comparison was tested in volunteers having a BMI of 37-40 kg/m2 and treated with XENICAL® (ORLISTAT) to induce lipid maldigestion or not treated with XENICAL® (ORLISTAT). The primary objective was to assess accretion of EPA in erythrocytes over 21 days when consumed as fish oil (TAG) or sn-1(3) MAG. The secondary objectives were to assess accretion of EPA in plasma over 21 days and also to assess the pharmacokinetics of EPA after an acute dose either in the form of sn-1(3) MAG or TAG (AUC in chylomicrons over 10 hours postprandial).

Row | Compound | EPA incorporation in red blood cells ([1]; rats fed fish oil with XENICAL (ORLISTAT) vs fish oil without, day 7) | level of EPA incorporated in red blood cells ([1]; compared with fish oil + XENICAL group, all P values lower than 0.05) | level of EPA incorporated in red blood cells ([1]; compared with fish oil group without XENICAL) | carrier for EPA compared with fish oil (TAG) ([2]; obese subjects treated with XENICAL (ORLISTAT)) | chronic effect: accretion of EPA in erythrocytes after 21 days ([2]; obese volunteers, with XENICAL (ORLISTAT), compared with fish oil + XENICAL, p=0.0001, FIG. 5) | chronic effect: accretion of EPA in plasma after 21 days ([2]; obese volunteers, with XENICAL (ORLISTAT), relative to fish oil + XENICAL, p=0.0003, FIG. 6)
1 | CCCCCCCCCCC[C@@H](C[C@@H]1OC(=O)[C@H]1CCCCCC)OC(=O)[C@H](CC(C)C)NC=O [XENICAL® (ORLISTAT), tetrahydrolipstatin, reference compound] | decreases EPA incorporation in red blood cells | – | – | – | – | –
2 | CC/C=C\C/C=C\C/C=C\C/C=C\C/C=C\CCCC(=O)OCC(O)CO (stereo not drawn) [sn-1(3) MAG, sn-1(3)-monoeicosapentaenoylglycerol] | – | statistically higher | even higher than the fish oil group | better carrier for EPA than fish oil | statistically significant | statistically significant
